Source: patent US11472811B2, “Pyrazolotriazolopyrimidine derivatives as A2A receptor antagonist” (BEIGENE, LTD., priority 2018, dated 2022)

Target: human A2A receptor (A2AR) (Homo sapiens (Human), UniProt P29274)
Experiment: Luciferase reporter assay (HEK293-A2AR-luc2p/CRE/Hygro cells)
Type: cell-based
Settings: 3 nM CGS21680, 5 h incubation
Procedure, shortened: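 HEK293 cells stably expressing human A2AR and a CRE-luc2P reporter were seeded in 1% FBS with 1 U/mL adenosine deaminase. After 18 h they were stimulated 5 h with 3 nM CGS21680 plus compound (0.1–10000 nM), then luciferase luminescence was read. IC50 was taken from inhibition curves, with CGS21680 alone set as 100%.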

Sequence of human A2A receptor (A2AR) (P29274 whole entry): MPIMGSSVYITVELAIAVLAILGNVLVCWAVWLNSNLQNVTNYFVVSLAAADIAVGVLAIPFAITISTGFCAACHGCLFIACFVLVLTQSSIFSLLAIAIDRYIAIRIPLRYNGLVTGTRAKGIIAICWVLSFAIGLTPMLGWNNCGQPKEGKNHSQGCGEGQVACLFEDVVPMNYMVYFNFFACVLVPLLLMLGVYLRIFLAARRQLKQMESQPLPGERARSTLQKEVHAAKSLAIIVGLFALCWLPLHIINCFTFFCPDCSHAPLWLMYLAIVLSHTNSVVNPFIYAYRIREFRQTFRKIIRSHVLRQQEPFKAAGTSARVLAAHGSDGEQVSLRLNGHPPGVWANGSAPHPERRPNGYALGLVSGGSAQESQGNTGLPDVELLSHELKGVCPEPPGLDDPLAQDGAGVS

Row | Compound | IC50
1 | Nc1nc2c(cnn2C(C(=O)NCc2ccccc2)c2ccccc2)c2nc(-c3ccco3)nn12 (stereo not shown) [Example 1, 2-(5-amino-2-(furan-2-yl)-7H-pyrazolo[4,3-e][1,2,4]triazolo[1,5-c]pyrimidin-7-yl)-N-benzyl-2-phenylacetamide] | 1.4 nM
2 | Nc1nc2c(cnn2C(C(=O)NCCc2ccccc2)c2ccccc2)c2nc(-c3ccco3)nn12 (stereo not shown) [Example 17, 2-(5-amino-2-(furan-2-yl)-7H-pyrazolo[4,3-e][1,2,4]triazolo[1,5-c]pyrimidin-7-yl)-N-phenethyl-2-phenylacetamide] | 3 nM
3 | Nc1nc2c(cnn2C(C(=O)N[C@@H]2CCOc3ccccc32)c2ccccc2)c2nc(-c3ccco3)nn12 (stereo partly drawn) [Example 15, 2-(5-amino-2-(furan-2-yl)-7H-pyrazolo[4,3-e][1,2,4]triazolo[1,5-c]pyrimidin-7-yl)-N—((R)-chroman-4-yl)-2-phenylacetamide] | 7.9 nM
4 | C[C@](C(=O)NC1CC[S+]([O-])CC1)(c1ccccc1)n1ncc2c1nc(N)n1nc(-c3ccco3)nc21 (single isomer, unassigned) [Example 146B-2] | 43.9 nM
5 | C[C@H](NC(=O)C(c1ccccc1)n1ncc2c1nc(N)n1nc(-c3ccco3)nc21)c1ccccc1 (stereo partly drawn) [Example 9, 2-(5-amino-2-(furan-2-yl)-7H-pyrazolo[4,3-e][1,2,4]triazolo[1,5-c]pyrimidin-7-yl)-2-phenyl-N—((S)-1-phenylethy)acetamide] | 31.9 nM
6 | Nc1nc2c(cnn2C(C(=O)NCc2ccc(C(F)(F)F)cc2)c2ccccc2)c2nc(-c3ccco3)nn12 (stereo not shown) [Example 29, 2-(5-amino-2-(furan-2-yl)-7H-pyrazolo[4,3-e][1,2,4]triazolo[1,5-c]pyrimidin-7-yl)-2-phenyl-N-(4-(trifluoromethyl)benzyl)acetamide] | 1.3 nM
7 | Nc1nc2c(cnn2C(C(=O)NCc2cccc(C(F)(F)F)c2)c2ccccc2)c2nc(-c3ccco3)nn12 (stereo not shown) [Example 22, 2-(5-amino-2-(furan-2-yl)-7H-pyrazolo[4,3-e][1,2,4]triazolo[1,5-c]pyrimidin-7-yl)-2-phenyl-N-(3-(trifluoromethyl)benzyl)acetamide] | 1.4 nM
8 | CC1(O)CCC(NC(=O)[C@@](C)(c2ccccc2)n2ncc3c2nc(N)n2nc(-c4ccco4)nc32)CC1 (stereo in doubt) [Example 33B, (R)-2-(5-amino-2-(furan-2-yl)-7H-pyrazolo[4,3-e][1,2,4]triazolo[1,5-c]pyrimidin-7-yl)-(trans)-N-(4-hydroxy-4-methylcyclohexyl)-2-phenylpropanamide] | 2.3 nM
9 | C[C@]1(O)CC[C@H](NC(=O)C(c2ccccc2)n2ncc3c2nc(N)n2nc(-c4ccco4)nc32)CC1 (stereo partly drawn) [Example 96, 2-(5-amino-2-(furan-2-yl)-7H-pyrazolo[4,3-e][1,2,4]triazolo[1,5-c]pyrimidin-7-yl)-(cis)-N-(4-hydroxy-4-methylcyclohexyl)-2-phenylacetamide] | 7.5 nM
10 | COc1ccccc1C(C)(C(=O)N[C@H]1CC[C@@H](O)CC1)n1ncc2c1nc(N)n1nc(-c3ccco3)nc21 (relative stereo) [Example 139, 2-(5-amino-2-(furan-2-yl)-7H-pyrazolo[4,3-e][1,2,4]triazolo[1,5-c]pyrimidin-7-yl)-N-((cis)-4-hydroxycyclohexyl)-2-(2-methoxyphenyl)propanamide] | 1.9 nM
11 | CC(C(=O)N[C@H]1CCCC[C@H]1O)(c1ccccc1)n1ncc2c1nc(N)n1nc(-c3ccco3)nc21 (stereo partly drawn) [Example 58A, 2-(5-amino-2-(furan-2-yl)-7H-pyrazolo[4,3-e][1,2,4]triazolo[1,5-c]pyrimidin-7-yl)-N-((1S,2R)-2-hydroxycyclohexyl)-2-phenylpropanamide] | 14.2 nM
12 | CN1CCN(CCNC(=O)[C@@](C)(c2ccccc2)n2ncc3c2nc(N)n2nc(-c4ccco4)nc32)CC1 [Example 147B, (R)-2-(5-amino-2-(furan-2-yl)-7H-pyrazolo[4,3-e][1,2,4]triazolo[1,5-c]pyrimidin-7-yl)-N-(2-(4-methylpiperazin-1-yl)ethyl)-2-phenylpropanamide] | 18.9 nM
13 | CCOc1ccccc1CNC(=O)C(c1ccccc1)n1ncc2c1nc(N)n1nc(-c3ccco3)nc21 (stereo not shown) [Example 6, 2-(5-amino-2-(furan-2-yl)-7H-pyrazolo[4,3-e][1,2,4]triazolo[1,5-c]pyrimidin-7-yl)-N-(2-triethoxybenzyl)-2-phenylacetamide] | 0.9 nM

Now from value to molecule:

Row | IC50 | Compound
14 | 9.1 nM | C[C@](C(=O)N[C@H]1C[C@@H](O)C1)(c1ccccc1)n1ncc2c1nc(N)n1nc(-c3ccco3)nc21 [Example 104B, (R)-2-(5-amino-2-(furan-2-yl)-7H-pyrazolo[4,3-e][1,2,4]triazolo[1,5-c]pyrimidin-7-yl)-(cis)-N-(3-hydroxycyclobutyl)-2-phenylpropanamide]
15 | 2.4 nM | C[C@](C(=O)NCc1ccccn1)(c1ccccc1)n1ncc2c1nc(N)n1nc(-c3ccco3)nc21 [Example 66B, (R)-2-(5-amino-2-(furan-2-yl)-7H-pyrazolo[4,3-e][1,2,4]triazolo[1,5-c]pyrimidin-7-yl)-2-phenyl-N-(pyridin-2-ylmethyl)propanamide]
16 | 25.5 nM | CC(C(=O)Nc1ccncc1)(c1ccccc1)n1ncc2c1nc(N)n1nc(-c3ccco3)nc21 (stereo not shown) [Example 65, 2-(5-amino-2-(furan-2-yl)-7H-pyrazolo[4,3-e][1,2,4]triazolo[1,5-c]pyrimidin-7-yl)-2-phenyl-N-(pyridin-4-yl)propanamide]
17 | 26.5 nM | Cc1cccc(CCNC(=O)[C@@](C)(c2ccccc2)n2ncc3c2nc(N)n2nc(-c4ccco4)nc32)n1 [Example 150B, (R)-2-(5-amino-2-(furan-2-yl)-7H-pyrazolo[4,3-e][1,2,4]triazolo[1,5-c]pyrimidin-7-yl)-N-(2-(6-methylpyridin-2-yl)ethyl)-2-phenylpropanamide]
18 | 4.1 nM | COc1cccc(CNC(=O)C(C)(c2ccccc2)n2ncc3c2nc(N)n2nc(-c4ccco4)nc32)n1 (stereo not shown) [Example 112, 2-(5-amino-2-(furan-2-yl)-7H-pyrazolo[4,3-e][1,2,4]triazolo[1,5-c]pyrimidin-7-yl)-N-((6-methoxypyridin-2-yl)methyl)-2-phenylpropanamide]
19 | 75.5 nM | CC(C(=O)N[C@@H]1CCCNC1)(c1ccccc1)n1ncc2c1nc(N)n1nc(-c3ccco3)nc21 (stereo partly drawn) [Example 67, 2-(5-amino-2-(furan-2-yl)-7H-pyrazolo[4,3-e][1,2,4]triazolo[1,5-c]pyrimidin-7-yl)-2-phenyl-N—((R)-piperidin-3-yl)propanamide]
20 | 35.1 nM | CC(C(=O)Nc1cccnc1)(c1ccccc1)n1ncc2c1nc(N)n1nc(-c3ccco3)nc21 (stereo not shown) [Example 64, 2-(5-amino-2-(furan-2-yl)-7H-pyrazolo[4,3-e][1,2,4]triazolo[1,5-c]pyrimidin-7-yl)-2-phenyl-N-(pyridin-3-yl)propanamide]
21 | 567 nM | C[C@](C(=O)O)(c1ccccc1)n1ncc2c1nc(N)n1nc(-c3ccco3)nc21 [Intermediate-Ib, (R)-2-(5-amino-2-(furan-2-yl)-7H-pyrazolo[4,3-e][1,2,4]triazolo[1,5-c]pyrimidin-7-yl)-2-phenylpropanoic acid]
22 | 3.8 nM | CC(C(=O)NCC1(O)CCC1)(c1ccccc1)n1ncc2c1nc(N)n1nc(-c3ccco3)nc21 (stereo not shown) [Example 71, 2-(5-amino-2-(furan-2-yl)-7H-pyrazolo[4,3-e][1,2,4]triazolo[1,5-c]pyrimidin-7-yl)-N-((1-hydroxycyclobutyl)methyl)-2-phenylpropanamide]
23 | 120 nM | CNCCNC(=O)C(C)(c1ccccc1)n1ncc2c1nc(N)n1nc(-c3ccco3)nc21 (stereo not shown) [Example 81, 2-(5-amino-2-(furan-2-yl)-7H-pyrazolo[4,3-e][1,2,4]triazolo[1,5-c]pyrimidin-7-yl)-N-(2-(methylamino)ethyl)-2-phenylpropanamide]
24 | 5.3 nM | CC(C(=O)NC[C@H]1CCCO1)(c1ccccc1)n1ncc2c1nc(N)n1nc(-c3ccco3)nc21 (stereo partly drawn) [Example 50, 2-(5-amino-2-(furan-2-yl)-7H-pyrazolo[4,3-e][1,2,4]triazolo[1,5-c]pyrimidin-7-yl)-2-phenyl-N—(((R)-tetrahydrofuran-2-yl)methyl)propanamide]
25 | 6 nM | C[C@](C(=O)NCc1cc(F)ccn1)(c1ccccc1)n1ncc2c1nc(N)n1nc(-c3ccco3)nc21 [Example 118B, (R)-2-(5-amino-2-(furan-2-yl)-7H-pyrazolo[4,3-e][1,2,4]triazolo[1,5-c]pyrimidin-7-yl)-N-((4-fluoropyridin-2-yl)methyl)-2-phenylpropanamide]
26 | 9.3 nM | CC(C(=O)NCCN1CCOCC1)(c1ccccc1)n1ncc2c1nc(N)n1nc(-c3ccco3)nc21 (stereo not shown) [Example 41, 2-(5-amino-2-(furan-2-yl)-7H-pyrazolo[4,3-e][1,2,4]triazolo[1,5-c]pyrimidin-7-yl)-N-(2-morpholinoethyl)-2-phenylpropanamide]
27 | 3.3 nM | COc1ccnc(CNC(=O)C(C)(c2ccccc2)n2ncc3c2nc(N)n2nc(-c4ccco4)nc32)c1 (stereo not shown) [Example 114, 2-(5-amino-2-(furan-2-yl)-7H-pyrazolo[4,3-e][1,2,4]triazolo[1,5-c]pyrimidin-7-yl)-N-((4-methoxypyridin-2-yl)methyl)-2-phenylpropanamide]
28 | 2.4 nM | Cc1ccnc(CNC(=O)C(C)(c2ccccc2)n2ncc3c2nc(N)n2nc(-c4ccco4)nc32)c1 (stereo not shown) [Example 110, 2-(5-amino-2-(furan-2-yl)-7H-pyrazolo[4,3-e][1,2,4]triazolo[1,5-c]pyrimidin-7-yl)-N-((4-methylpyridin-2-yl)methyl)-2-phenylpropanamide]
